Source: patent publication US5260298A, “Imidazatriazoloquinazoline compounds and their use” (Novo Nordisk A/S, priority 1991, dated 1993)

System: benzodiazepine receptors
Test: in vivo displacement of 3H-flunitrazepam binding from benzodiazepine receptors in a living brain
Details: dose which reduces specific binding of 3H-flunitrazepam to benzodiazepine receptors in a living brain to 50% of the control value
Text: The pharmaceutical properties of the compounds of the invention can be illustrated by determining their capability for displacing radioactive labelled flunitrazepam from benzodiazepine receptors.
The displacement activity of the compounds of the invention may be found by determining the ED50 value. The ED50 value represents the dose (mg/kg) of a test substance which causes the specific binding of ^3 H-flunitrazepam to benzodiazepine receptors in a living brain to be reduced to 50% of the control value.
Such an in vivo test is carried out as described in U.S. Pat. No. 4,774,245.

SMILES | ED50 [mg/kg]
c1ccc2c(c1)c1ncnn1c1c(-c3nc(C4CC4)no3)ncn21 [Compound 3, 5-(3-cyclopropyl-1,2,4-oxadiazol-5-yl)-imidazo[1,5-a]-[1,2,4]triazolo[1,5-c]quinazoline] | 0.16
Clc1cccc2c1c1ncnn1c1c(-c3nc(C4CC4)no3)ncn21 [Compound 5, 12-chloro-5-(3-cyclopropyl-1,2,4-oxadiazol-5-yl)-imidazo[1,5-a][1,2,4]triazolo[1,5-c]quinazoline] | 0.30
